Experimental data reported in US11071743B1, “Effective, non-toxic treatments for brain cancer” (priority 2015, dated 2021).

Assays:
[1] = test system: lipid-encapsulated viruses; settings: in vitro; cited from earlier work
[2] = test system: glioblastoma multiforme; assay: Example Two: treatment of a patient; assay type: in vivo, human; settings: dose escalated to 22 mg/kg
Experimental: A person living in Argentina was diagnosed with glioblastoma multiforme in January of 2014 and was immediately treated with surgery, chemotherapy, and radiation.
Shortly thereafter, near the middle of October, the patient began receiving the following regimen, alfacalcidol not being available: valganciclovir, 450 mg twice a day melatonin, 12 mg twice a day
BHT, 700 mg in the morning plus 350 mg at night resveratrol, 175 mg twice a day lycopene, 15 mg once a day
Honokiol, 250 mg twice a day metformin, 500 mg once a day, and vitamin D3, 2800 IU at night.
About two weeks later, bio-absorbable curcumin (from the Life Extension Foundation, described above), 400 mg twice a day, was added to the regimen, and circa November 4th, alfacalcidol was added to the regimen (3 micrograms in the morning).
The supply of alfacalcidol ran out at about that time. At the same time, sugar and other carbohydrate intake was restricted. In February, the dexamethasone dose was cut to 1 and 2 mg in the morning and evening, respectively. […] Alfacalcidol was resumed in April, at a double dose (3 micrograms twice a day) to compensate in part for the previous lapse, at which time the dexamethasone dose was cut to 1 mg twice a day. The tumor continued to show no progression in May, and the alfacalcidol dose was reduced to 2 micrograms twice a day in June, when the metformin dose was raised to […] in the morning. […]

[3] = normal brains; cited from earlier work
[4] = test system: glioblastoma; settings: in lab dishes; cited from earlier work

Cc1cc(C(C)(C)C)c(O)c(C(C)(C)C)c1 [BHT, butylated hydroxytoluene]
killing of lipid-encapsulated viruses [1]: kill lipid-encapsulated viruses

O=C(O)C(Cl)Cl [DCA, dichloroacetate]
side effect of DCA [2]: numbness was experienced

Oc1ccc(C=Cc2cc(O)cc(O)c2)cc1 [Resveratrol]
blood-brain barrier penetration [3]: poorly if at all
anti-glioblastoma effects [4]: powerful anti-glioblastoma effects
